Assay results from the kinase profiling compilation of Christmann-Franck et al. (2016).

Tests used:
Assay in all cases: radiometric filter-binding kinase assay, Kinase HotSpot
Details in all cases: compound 0.5 µM; ATP 10 µM
[1] = molecular target: ACVR1 (human) (UniProt Q04771)
[2] = molecular target: AURKC (human) (UniProt Q9UQB9)
[3] = molecular target: BRAF (human) (UniProt P15056)
[4] = molecular target: CAMK4 (human) (UniProt Q16566)
[5] = molecular target: CDC42BPB (human) (UniProt Q9Y5S2)
[6] = molecular target: CDK3 CCNE1 (human) (UniProt Q00526+P24864)
[7] = molecular target: CLK1 (human) (UniProt P49759)
[8] = molecular target: CSK (human) (UniProt P41240)
[9] = molecular target: CSNK2A1 (human) (UniProt P68400)
[10] = molecular target: DAPK3 (human) (UniProt O43293)
[11] = molecular target: EPHA3 (human) (UniProt P29320)
[12] = molecular target: FGFR1 (human) (UniProt P11362)
[13] = molecular target: FGR (human) (UniProt P09769)
[14] = molecular target: HIPK2 (human) (UniProt Q9H2X6)
[15] = molecular target: HIPK3 (human) (UniProt Q9H422)
[16] = molecular target: HIPK4 (human) (UniProt Q8NE63)
[17] = molecular target: INSRR (human) (UniProt P14616)
[18] = molecular target: IRAK1 (human) (UniProt P51617)
[19] = molecular target: KIT (human) (UniProt P10721)
Chain of KIT (human) (P10721 whole entry, looked up): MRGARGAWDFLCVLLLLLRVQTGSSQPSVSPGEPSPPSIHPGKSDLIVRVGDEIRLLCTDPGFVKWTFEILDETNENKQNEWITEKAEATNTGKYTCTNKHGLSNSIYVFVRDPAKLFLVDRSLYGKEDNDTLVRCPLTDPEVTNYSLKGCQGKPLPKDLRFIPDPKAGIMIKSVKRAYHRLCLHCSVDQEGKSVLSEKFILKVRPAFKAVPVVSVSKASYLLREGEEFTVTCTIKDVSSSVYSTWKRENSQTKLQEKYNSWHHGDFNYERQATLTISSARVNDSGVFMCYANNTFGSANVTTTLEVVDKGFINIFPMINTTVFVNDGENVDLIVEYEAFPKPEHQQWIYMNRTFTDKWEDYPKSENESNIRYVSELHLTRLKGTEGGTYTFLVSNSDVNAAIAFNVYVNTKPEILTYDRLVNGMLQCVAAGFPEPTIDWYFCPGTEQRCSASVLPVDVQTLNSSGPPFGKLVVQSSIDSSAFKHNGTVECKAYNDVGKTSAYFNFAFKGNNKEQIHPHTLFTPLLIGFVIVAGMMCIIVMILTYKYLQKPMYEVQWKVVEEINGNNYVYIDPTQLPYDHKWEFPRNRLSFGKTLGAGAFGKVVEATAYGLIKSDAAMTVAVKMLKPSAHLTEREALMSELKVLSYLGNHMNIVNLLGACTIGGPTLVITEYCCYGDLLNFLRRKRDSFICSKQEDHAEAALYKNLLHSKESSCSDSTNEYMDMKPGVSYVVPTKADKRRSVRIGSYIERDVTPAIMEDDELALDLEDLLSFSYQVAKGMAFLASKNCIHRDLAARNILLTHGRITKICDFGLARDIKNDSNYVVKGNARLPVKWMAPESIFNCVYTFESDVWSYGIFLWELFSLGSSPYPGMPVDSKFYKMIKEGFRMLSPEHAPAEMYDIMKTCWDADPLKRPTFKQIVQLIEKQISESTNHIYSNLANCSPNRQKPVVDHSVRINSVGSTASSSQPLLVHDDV

[20] = molecular target: LTK (human) (UniProt P29376)
[21] = molecular target: MAPK8 (human) (UniProt P45983)
[22] = molecular target: MET (human) (UniProt P08581)
[23] = molecular target: MST1R (human) (UniProt Q04912)
Chain of MST1R (human) (Q04912 whole entry, looked up): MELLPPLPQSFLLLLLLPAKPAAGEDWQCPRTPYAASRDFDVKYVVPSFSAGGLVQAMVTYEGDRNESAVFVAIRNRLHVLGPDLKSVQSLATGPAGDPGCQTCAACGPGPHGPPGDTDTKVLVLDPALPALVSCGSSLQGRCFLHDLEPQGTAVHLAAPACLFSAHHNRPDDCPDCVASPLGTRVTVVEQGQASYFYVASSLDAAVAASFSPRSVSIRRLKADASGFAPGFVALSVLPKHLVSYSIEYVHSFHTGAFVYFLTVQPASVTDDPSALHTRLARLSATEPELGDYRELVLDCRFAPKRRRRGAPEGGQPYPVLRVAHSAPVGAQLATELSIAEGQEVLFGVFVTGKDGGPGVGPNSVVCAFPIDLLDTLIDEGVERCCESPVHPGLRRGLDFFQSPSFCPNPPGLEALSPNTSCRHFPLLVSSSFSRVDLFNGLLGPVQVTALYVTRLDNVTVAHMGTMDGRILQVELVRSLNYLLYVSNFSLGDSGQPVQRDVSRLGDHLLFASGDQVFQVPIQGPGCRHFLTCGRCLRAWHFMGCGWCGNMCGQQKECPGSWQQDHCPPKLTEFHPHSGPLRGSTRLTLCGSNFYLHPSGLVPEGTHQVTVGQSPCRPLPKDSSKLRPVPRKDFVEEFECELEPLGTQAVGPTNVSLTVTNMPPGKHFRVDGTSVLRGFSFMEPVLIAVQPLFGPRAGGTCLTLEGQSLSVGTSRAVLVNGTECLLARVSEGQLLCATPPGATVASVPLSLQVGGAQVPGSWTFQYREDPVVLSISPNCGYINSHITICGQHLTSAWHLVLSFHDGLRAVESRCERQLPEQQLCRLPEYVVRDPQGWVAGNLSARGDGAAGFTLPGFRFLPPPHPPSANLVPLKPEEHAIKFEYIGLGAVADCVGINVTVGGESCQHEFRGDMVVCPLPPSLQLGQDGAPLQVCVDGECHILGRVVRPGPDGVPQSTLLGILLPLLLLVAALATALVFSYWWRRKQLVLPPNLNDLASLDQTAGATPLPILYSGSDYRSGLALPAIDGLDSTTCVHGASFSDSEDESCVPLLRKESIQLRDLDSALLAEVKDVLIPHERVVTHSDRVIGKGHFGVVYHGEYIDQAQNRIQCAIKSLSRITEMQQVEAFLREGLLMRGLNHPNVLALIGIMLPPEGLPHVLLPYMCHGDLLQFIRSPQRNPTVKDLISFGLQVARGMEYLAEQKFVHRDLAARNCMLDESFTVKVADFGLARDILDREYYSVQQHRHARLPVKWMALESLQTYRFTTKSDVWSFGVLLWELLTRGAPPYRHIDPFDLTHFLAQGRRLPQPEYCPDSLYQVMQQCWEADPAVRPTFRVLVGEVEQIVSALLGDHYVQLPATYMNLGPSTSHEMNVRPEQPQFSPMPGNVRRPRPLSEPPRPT

[24] = molecular target: NEK1 (human) (UniProt Q96PY6)
Chain of NEK1 (human) (Q96PY6 whole entry, looked up): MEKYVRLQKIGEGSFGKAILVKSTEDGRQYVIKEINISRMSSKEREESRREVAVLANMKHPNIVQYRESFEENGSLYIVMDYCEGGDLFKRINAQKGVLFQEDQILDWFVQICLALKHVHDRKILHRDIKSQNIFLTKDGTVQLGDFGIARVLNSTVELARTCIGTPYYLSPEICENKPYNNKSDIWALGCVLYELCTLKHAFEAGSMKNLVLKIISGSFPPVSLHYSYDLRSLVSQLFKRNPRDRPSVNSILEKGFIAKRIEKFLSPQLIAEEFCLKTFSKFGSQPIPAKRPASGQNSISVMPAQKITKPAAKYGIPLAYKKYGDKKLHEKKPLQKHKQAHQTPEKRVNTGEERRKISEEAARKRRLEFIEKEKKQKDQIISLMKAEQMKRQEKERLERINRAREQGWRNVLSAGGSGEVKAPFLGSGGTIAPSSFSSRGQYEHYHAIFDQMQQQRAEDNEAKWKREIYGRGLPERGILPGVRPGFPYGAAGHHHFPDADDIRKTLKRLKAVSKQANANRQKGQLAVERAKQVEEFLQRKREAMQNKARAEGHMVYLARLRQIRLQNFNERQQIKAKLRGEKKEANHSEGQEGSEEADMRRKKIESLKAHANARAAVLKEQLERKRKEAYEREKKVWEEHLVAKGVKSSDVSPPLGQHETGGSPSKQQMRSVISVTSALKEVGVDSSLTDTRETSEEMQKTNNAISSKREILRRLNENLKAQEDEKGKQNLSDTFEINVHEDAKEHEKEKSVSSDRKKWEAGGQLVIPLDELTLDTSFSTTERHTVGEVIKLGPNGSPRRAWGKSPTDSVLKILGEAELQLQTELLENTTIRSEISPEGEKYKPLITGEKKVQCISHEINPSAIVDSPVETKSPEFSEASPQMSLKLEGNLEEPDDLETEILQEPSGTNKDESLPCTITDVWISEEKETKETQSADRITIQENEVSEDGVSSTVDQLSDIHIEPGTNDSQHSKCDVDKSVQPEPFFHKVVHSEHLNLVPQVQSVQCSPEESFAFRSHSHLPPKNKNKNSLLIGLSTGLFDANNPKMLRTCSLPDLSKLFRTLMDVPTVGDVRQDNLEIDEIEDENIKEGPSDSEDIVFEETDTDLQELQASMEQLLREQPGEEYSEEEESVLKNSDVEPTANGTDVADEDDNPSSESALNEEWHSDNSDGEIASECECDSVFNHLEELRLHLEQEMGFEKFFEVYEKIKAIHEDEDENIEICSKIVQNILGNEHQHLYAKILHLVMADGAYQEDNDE

[25] = molecular target: NEK9 (human) (UniProt Q8TD19)
[26] = molecular target: PAK6 (human) (UniProt Q9NQU5)
[27] = molecular target: PHKG1 (human) (UniProt Q16816)
[28] = molecular target: PLK1 (human) (UniProt P53350)
[29] = molecular target: PRKCD (human) (UniProt Q05655)
[30] = molecular target: RPS6KA3 KD1 KD2 (human) (UniProt P51812)
[31] = molecular target: SGK3 (human) (UniProt Q96BR1)
[32] = molecular target: TAOK2 (human) (UniProt Q9UL54)
[33] = molecular target: TSSK1B (human) (UniProt Q9BXA7)
[34] = molecular target: TSSK2 (human) (UniProt Q96PF2)
Chain of TSSK2 (human) (Q96PF2 whole entry, looked up): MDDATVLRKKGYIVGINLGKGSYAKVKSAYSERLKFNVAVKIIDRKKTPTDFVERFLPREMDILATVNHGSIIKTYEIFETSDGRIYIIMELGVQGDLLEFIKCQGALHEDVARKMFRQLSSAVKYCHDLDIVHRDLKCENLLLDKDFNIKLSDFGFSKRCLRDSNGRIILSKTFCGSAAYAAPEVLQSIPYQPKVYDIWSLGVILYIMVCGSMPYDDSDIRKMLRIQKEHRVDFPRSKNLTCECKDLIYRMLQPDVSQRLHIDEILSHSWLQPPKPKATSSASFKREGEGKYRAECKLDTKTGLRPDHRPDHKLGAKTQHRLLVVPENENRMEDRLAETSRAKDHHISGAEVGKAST

[35] = molecular target: TXK (human) (UniProt P42681)
Chain of TXK (human) (P42681 whole entry, looked up): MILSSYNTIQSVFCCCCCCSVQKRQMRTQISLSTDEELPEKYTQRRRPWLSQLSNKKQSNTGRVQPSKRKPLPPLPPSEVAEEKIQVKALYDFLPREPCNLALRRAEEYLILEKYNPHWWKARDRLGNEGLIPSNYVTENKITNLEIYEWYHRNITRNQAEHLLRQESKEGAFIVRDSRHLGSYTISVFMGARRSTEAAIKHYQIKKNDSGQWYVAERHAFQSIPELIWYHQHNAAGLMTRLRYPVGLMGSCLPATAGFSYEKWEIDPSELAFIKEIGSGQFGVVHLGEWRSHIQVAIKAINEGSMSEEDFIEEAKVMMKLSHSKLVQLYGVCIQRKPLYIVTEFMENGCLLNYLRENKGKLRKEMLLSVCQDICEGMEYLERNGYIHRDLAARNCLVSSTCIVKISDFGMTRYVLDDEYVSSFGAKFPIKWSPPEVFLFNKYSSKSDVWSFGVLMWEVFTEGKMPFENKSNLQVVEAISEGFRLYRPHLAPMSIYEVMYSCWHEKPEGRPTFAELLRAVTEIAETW

Chain of ACVR1 (human) (Q04771 whole entry, looked up): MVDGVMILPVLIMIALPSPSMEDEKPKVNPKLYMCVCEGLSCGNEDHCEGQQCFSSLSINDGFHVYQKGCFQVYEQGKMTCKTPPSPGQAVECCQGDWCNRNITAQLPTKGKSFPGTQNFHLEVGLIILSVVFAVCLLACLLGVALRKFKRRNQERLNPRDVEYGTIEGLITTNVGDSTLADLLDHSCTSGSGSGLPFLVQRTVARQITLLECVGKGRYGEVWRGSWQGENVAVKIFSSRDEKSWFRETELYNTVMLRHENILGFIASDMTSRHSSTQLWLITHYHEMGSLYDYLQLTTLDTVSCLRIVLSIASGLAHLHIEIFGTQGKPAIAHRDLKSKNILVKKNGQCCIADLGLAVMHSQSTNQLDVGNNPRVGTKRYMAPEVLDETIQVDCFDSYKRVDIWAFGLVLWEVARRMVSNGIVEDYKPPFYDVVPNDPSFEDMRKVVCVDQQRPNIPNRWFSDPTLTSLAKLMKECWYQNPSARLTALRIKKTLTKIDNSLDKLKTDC

Row | SMILES | residual activity [1] [%] | residual activity [2] [%] | residual activity [3] [%] | residual activity [4] [%] | residual activity [5] [%] | residual activity [6] [%] | residual activity [7] [%] | residual activity [8] [%] | residual activity [9] [%] | residual activity [10] [%] | residual activity [11] [%] | residual activity [12] [%] | residual activity [13] [%] | residual activity [14] [%] | residual activity [15] [%] | residual activity [16] [%] | residual activity [17] [%] | residual activity [18] [%] | residual activity [19] [%] | residual activity [20] [%] | other results
1 | Cn1cnc2cc3c(Nc4cccc(Br)c4)ncnc3cc21 | 109 | 96.5 | 94.2 | 98.6 | 104 | 92.5 | 102 | 88.1 | 99 | 93.7 | 82.9 | 89.6 | 55.8 | 106 | 107 | 88.6 | 92.1 | 80.5 | 78.6 | 77.9 | residual activity [21]: 96.9%; residual activity [22]: 101%; residual activity [23]: 96.5%; residual activity [24]: 97.9%; residual activity [25]: 90%; residual activity [26]: 95%; residual activity [27]: 85%; residual activity [28]: 97.6%; residual activity [29]: 91.8%; residual activity [30]: 105%; residual activity [31]: 107%; residual activity [32]: 103%; residual activity [33]: 104%; residual activity [34]: 111%; residual activity [35]: 86.7%
2 | O=C1Nc2ccccc2/C1=C1\Nc2ccccc2\C1=N/O | 112 | 56.4 | 105 | 97.4 | 99.5 | 52.3 | 90.9 | 93 | 78.2 | 94.4 | 92 | 52.2 | 35.7 | 104 | 89.2 | 102 | 35.7 | 68.8 | 73.2 | 62.3 | residual activity [21]: 101%; residual activity [22]: 110%; residual activity [23]: 103%; residual activity [24]: 96.9%; residual activity [25]: 95.4%; residual activity [26]: 94.4%; residual activity [27]: 31.5%; residual activity [28]: 100%; residual activity [29]: 95%; residual activity [30]: 61.4%; residual activity [31]: 102%; residual activity [32]: 96.3%; residual activity [33]: 86%; residual activity [34]: 97.7%; residual activity [35]: 66.7%
3 | O=C(Nc1cccc(Nc2cc(Nc3cccc(C(F)(F)F)c3)ncn2)c1)C1CC1 | 103 | 104 | 96.8 | 98.5 | 97.4 | 94.8 | 107 | 102 | 92.6 | 99.8 | 98.4 | 103 | 96.4 | 107 | 97 | 101 | 101 | 111 | 99.9 | 96.8 | residual activity [21]: 93.4%; residual activity [22]: 103%; residual activity [23]: 107%; residual activity [24]: 109%; residual activity [25]: 101%; residual activity [26]: 99.3%; residual activity [27]: 100%; residual activity [28]: 98.6%; residual activity [29]: 101%; residual activity [30]: 105%; residual activity [31]: 106%; residual activity [32]: 103%; residual activity [33]: 104%; residual activity [34]: 103%; residual activity [35]: 97.1%
4 | CCN(CC)CCCCN1c2ccccc2Oc2ccc(Cl)cc21 | 101 | 99.3 | 98.8 | 98.9 | 99.7 | 90.3 | 110 | 99.1 | 96.2 | 106 | 101 | 105 | 101 | 118 | 94.2 | 99.2 | 102 | 118 | 107 | 98.4 | residual activity [21]: 89.7%; residual activity [22]: 105%; residual activity [23]: 112%; residual activity [24]: 101%; residual activity [25]: 98.8%; residual activity [26]: 102%; residual activity [27]: 96.5%; residual activity [28]: 109%; residual activity [29]: 95.4%; residual activity [30]: 98.6%; residual activity [31]: 101%; residual activity [32]: 95.3%; residual activity [33]: 96.7%; residual activity [34]: 103%; residual activity [35]: 101%
5 | COc1ccc(CNC(=O)Nc2ncc([N+](=O)[O-])s2)cc1 | 99.5 | 98.4 | 93.4 | 96.7 | 93.5 | 94.8 | 106 | 102 | 94.2 | 106 | 111 | 98.9 | 92.4 | 103 | 91.9 | 103 | 99.2 | 108 | 103 | 101 | residual activity [21]: 104%; residual activity [22]: 85.5%; residual activity [23]: 98.4%; residual activity [24]: 94.3%; residual activity [25]: 89.4%; residual activity [26]: 106%; residual activity [27]: 101%; residual activity [28]: 102%; residual activity [29]: 100%; residual activity [31]: 96.9%; residual activity [32]: 98.5%; residual activity [33]: 106%; residual activity [34]: 105%; residual activity [35]: 96.9%
6 | O=C1NC(=O)C(c2c[nH]c3ccccc23)=C1c1c[nH]c2ccccc12 | 97.1 | 101 | 101 | 100 | 99 | 91.5 | 111 | 103 | 106 | 104 | 95.1 | 41.4 | 88.5 | 104 | 96 | 109 | 90.1 | 89.6 | 68.5 | 85.1 | residual activity [21]: 95.1%; residual activity [23]: 93.1%; residual activity [24]: 93.8%; residual activity [25]: 97.3%; residual activity [26]: 92.4%; residual activity [27]: 74.9%; residual activity [28]: 94.5%; residual activity [29]: 55.5%; residual activity [30]: 46.7%; residual activity [31]: 97.9%; residual activity [32]: 102%; residual activity [33]: 106%; residual activity [34]: 110%; residual activity [35]: 101%
